Assay results published in ChEMBL document CHEMBL3885861, “Open TG-GATES”.

Species: Rattus norvegicus
Test: Open TG-GATES - Regimen: Single
Type: toxicity, organism-based, Sprague-Dawley
Design: regimen Single, gender Male, age 6 weeks
Conditions: in vivo, po, route gavage; for APTT / Bas / Eos / Fbg / Hb / Ht / Lym / MCH / MCHC / MCV / Mono / Neu / Plat / RBC / Ret / WBC: tissue Blood; for KIDNEY_L / KIDNEY_R / KIDNEY_TOTAL: tissue Kidney; for LIVER: tissue Liver; for ALP / ALT / AST / BUN / CRE / Ca / Cl / DBIL / GLC / IP / K / LDH / Na / PL / RALB / TBIL / TC / TG / TP / gamma-GTP: tissue Plasma
[1] = 1000 mg/kg, 3 h, dose level Middle
[2] = 1000 mg/kg, 6 h, dose level Middle
[3] = 1000 mg/kg, 9 h, dose level Middle
[4] = 1000 mg/kg, 24 h, dose level Middle
[5] = 2000 mg/kg, 3 h, dose level High
[6] = 2000 mg/kg, 6 h, dose level High
[7] = 2000 mg/kg, 9 h, dose level High
[8] = 2000 mg/kg, 24 h, dose level High

Which results are given for `CC(=O)Oc1ccccc1C(=O)O` [ASPIRIN]?
TERMINAL_BW [1]: 217.1 g; APTT [1]: 19 s; Bas [1]: 0%; Eos [1]: 1%; Fbg [1]: 217.4 mg/dL; Hb [1]: 13.6 g/dL; Ht [1]: 37.9%; Lym [1]: 69.4%; MCH [1]: 21.9 pg; MCHC [1]: 35.9%; MCV [1]: 60.8 fL; Mono [1]: 2.8%; Neu [1]: 25.4%; Plat [1]: 121 x10_4/uL; RBC [1]: 624.8 x10_4/ul; Ret [1]: 8%; WBC [1]: 72.1 x10_2/uL; KIDNEY_L [1]: 0.9 g; KIDNEY_R [1]: 1 g; KIDNEY_TOTAL [1]: 1.9 g; LIVER [1]: 8.8 g; ALP [1]: 835 IU/L; ALT [1]: 44.4 IU/L; AST [1]: 79 IU/L; BUN [1]: 15.8 mg/dL; CRE [1]: 0.4 mg/dL; Ca [1]: 8.7 mg/dL; Cl [1]: 104 meq/L; DBIL [1]: 0.06 mg/dL; GLC [1]: 203.8 mg/dL; IP [1]: 8.3 mg/dL; K [1]: 3.4 meq/L; LDH [1]: 205.8 IU/L; Na [1]: 141 meq/L; PL [1]: 88.8 mg/dL; RALB [1]: 3.4 g/dL; TBIL [1]: 0.1 mg/dL; TC [1]: 54.6 mg/dL; TG [1]: 26.2 mg/dL; TP [1]: 5.5 g/dL; gamma-GTP [1]: 1 IU/L; TERMINAL_BW [2]: 218.6 g; APTT [2]: 19.9 s; Bas [2]: 0%; Eos [2]: 0.6%; Fbg [2]: 233.4 mg/dL; Hb [2]: 13.7 g/dL; Ht [2]: 37.9%; Lym [2]: 66%; MCH [2]: 21.5 pg; MCHC [2]: 36.2%; MCV [2]: 59.5 fL; Mono [2]: 3.4%; Neu [2]: 29%; Plat [2]: 132.5 x10_4/uL; RBC [2]: 637.2 x10_4/ul; Ret [2]: 7.9%; WBC [2]: 97.1 x10_2/uL; KIDNEY_L [2]: 1 g; KIDNEY_R [2]: 0.9 g; KIDNEY_TOTAL [2]: 1.9 g; LIVER [2]: 8.5 g; ALP [2]: 820.8 IU/L; ALT [2]: 35.4 IU/L; AST [2]: 78.2 IU/L; BUN [2]: 14.8 mg/dL; CRE [2]: 0.4 mg/dL; Ca [2]: 8.3 mg/dL; Cl [2]: 104.2 meq/L; DBIL [2]: 0.056 mg/dL; GLC [2]: 209.4 mg/dL; IP [2]: 8.1 mg/dL; K [2]: 3.3 meq/L; LDH [2]: 236.6 IU/L; Na [2]: 140.2 meq/L; PL [2]: 108 mg/dL; RALB [2]: 3.6 g/dL; TBIL [2]: 0.098 mg/dL; TC [2]: 68.6 mg/dL; TG [2]: 16.8 mg/dL; TP [2]: 5.7 g/dL; gamma-GTP [2]: 1 IU/L; TERMINAL_BW [3]: 217.1 g; APTT [3]: 21.6 s; Bas [3]: 0%; Eos [3]: 1%; Fbg [3]: 232.4 mg/dL; Hb [3]: 13.7 g/dL; Ht [3]: 38.1%; Lym [3]: 69.4%; MCH [3]: 21.4 pg; MCHC [3]: 35.8%; MCV [3]: 59.7 fL; Mono [3]: 2.4%; Neu [3]: 27%; Plat [3]: 128.3 x10_4/uL; RBC [3]: 638.6 x10_4/ul; Ret [3]: 7.8%; WBC [3]: 93.3 x10_2/uL; KIDNEY_L [3]: 1 g; KIDNEY_R [3]: 0.9 g; KIDNEY_TOTAL [3]: 1.9 g; LIVER [3]: 7.5 g; ALP [3]: 903.8 IU/L; ALT [3]: 33.2 IU/L; AST [3]: 79.8 IU/L; BUN [3]: 13.2 mg/dL; CRE [3]: 0.4 mg/dL; Ca [3]: 8.5 mg/dL; Cl [3]: 106.4 meq/L; DBIL [3]: 0.05 mg/dL; GLC [3]: 202.4 mg/dL; IP [3]: 7.7 mg/dL; K [3]: 3.2 meq/L; LDH [3]: 227.2 IU/L; Na [3]: 140.6 meq/L; PL [3]: 102.4 mg/dL; RALB [3]: 3.5 g/dL; TBIL [3]: 0.098 mg/dL; TC [3]: 62.8 mg/dL; TG [3]: 9.2 mg/dL; TP [3]: 5.5 g/dL; gamma-GTP [3]: 1.2 IU/L; TERMINAL_BW [4]: 217 g; APTT [4]: 29.4 s; Bas [4]: 0.4%; Eos [4]: 1%; Fbg [4]: 225 mg/dL; Hb [4]: 14.4 g/dL; Ht [4]: 39.3%; Lym [4]: 72%; MCH [4]: 22.1 pg; MCHC [4]: 36.6%; MCV [4]: 60.4 fL; Mono [4]: 2.2%; Neu [4]: 24.2%; Plat [4]: 131.6 x10_4/uL; RBC [4]: 650.8 x10_4/ul; Ret [4]: 7.1%; WBC [4]: 89.6 x10_2/uL; KIDNEY_L [4]: 0.9 g; KIDNEY_R [4]: 0.9 g; KIDNEY_TOTAL [4]: 1.9 g; LIVER [4]: 8.1 g; ALP [4]: 933.8 IU/L; ALT [4]: 38 IU/L; AST [4]: 110 IU/L; BUN [4]: 14.8 mg/dL; CRE [4]: 0.4 mg/dL; Ca [4]: 8.7 mg/dL; Cl [4]: 105.6 meq/L; DBIL [4]: 0.052 mg/dL; GLC [4]: 214 mg/dL; IP [4]: 7.3 mg/dL; K [4]: 3.5 meq/L; LDH [4]: 227.6 IU/L; Na [4]: 140.8 meq/L; PL [4]: 75.4 mg/dL; RALB [4]: 3.5 g/dL; TBIL [4]: 0.1 mg/dL; TC [4]: 40.2 mg/dL; TG [4]: 23.4 mg/dL; TP [4]: 5.7 g/dL; gamma-GTP [4]: 1.6 IU/L; TERMINAL_BW [5]: 220 g; APTT [5]: 19.5 s; Bas [5]: 0%; Eos [5]: 1.2%; Fbg [5]: 224.8 mg/dL; Hb [5]: 13.7 g/dL; Ht [5]: 37.7%; Lym [5]: 62.2%; MCH [5]: 21.9 pg; MCHC [5]: 36.3%; MCV [5]: 60.4 fL; Mono [5]: 4.6%; Neu [5]: 30.4%; Plat [5]: 124.1 x10_4/uL; RBC [5]: 625.8 x10_4/ul; Ret [5]: 8.1%; WBC [5]: 71.4 x10_2/uL; KIDNEY_L [5]: 1 g; KIDNEY_R [5]: 1 g; KIDNEY_TOTAL [5]: 1.9 g; LIVER [5]: 8.9 g; ALP [5]: 991.6 IU/L; ALT [5]: 41.4 IU/L; AST [5]: 86.6 IU/L; BUN [5]: 15.6 mg/dL; CRE [5]: 0.4 mg/dL; Ca [5]: 8.3 mg/dL; Cl [5]: 103.6 meq/L; DBIL [5]: 0.06 mg/dL; GLC [5]: 200 mg/dL; IP [5]: 9 mg/dL; K [5]: 3.4 meq/L; LDH [5]: 248.4 IU/L; Na [5]: 141 meq/L; PL [5]: 96.4 mg/dL; RALB [5]: 3.5 g/dL; TBIL [5]: 0.1 mg/dL; TC [5]: 62 mg/dL; TG [5]: 24 mg/dL; TP [5]: 5.8 g/dL; gamma-GTP [5]: 1.4 IU/L; TERMINAL_BW [6]: 217 g; APTT [6]: 20.8 s; Bas [6]: 0%; Eos [6]: 0.8%; Fbg [6]: 225.6 mg/dL; Hb [6]: 13.7 g/dL; Ht [6]: 37.8%; Lym [6]: 63.8%; MCH [6]: 22.1 pg; MCHC [6]: 36.3%; MCV [6]: 60.8 fL; Mono [6]: 3%; Neu [6]: 31.6%; Plat [6]: 118.3 x10_4/uL; RBC [6]: 622 x10_4/ul; Ret [6]: 8.3%; WBC [6]: 91.9 x10_2/uL; KIDNEY_L [6]: 1 g; KIDNEY_R [6]: 1 g; KIDNEY_TOTAL [6]: 2 g; LIVER [6]: 8.3 g; ALP [6]: 843.8 IU/L; ALT [6]: 35.4 IU/L; AST [6]: 79 IU/L; BUN [6]: 17.8 mg/dL; CRE [6]: 0.4 mg/dL; Ca [6]: 8.1 mg/dL; Cl [6]: 104.2 meq/L; DBIL [6]: 0.056 mg/dL; GLC [6]: 221.4 mg/dL; IP [6]: 7.9 mg/dL; K [6]: 3.2 meq/L; LDH [6]: 233.4 IU/L; Na [6]: 140.4 meq/L; PL [6]: 103.4 mg/dL; RALB [6]: 3.5 g/dL; TBIL [6]: 0.1 mg/dL; TC [6]: 67.8 mg/dL; TG [6]: 12.2 mg/dL; TP [6]: 5.7 g/dL; gamma-GTP [6]: 1.2 IU/L; TERMINAL_BW [7]: 217.3 g; APTT [7]: 22.1 s; Bas [7]: 0%; Eos [7]: 0.8%; Fbg [7]: 224.8 mg/dL; Hb [7]: 13.9 g/dL; Ht [7]: 38.3%; Lym [7]: 65%; MCH [7]: 21.8 pg; MCHC [7]: 36.3%; MCV [7]: 60.1 fL; Mono [7]: 2.2%; Neu [7]: 31.2%; Plat [7]: 127.8 x10_4/uL; RBC [7]: 636.2 x10_4/ul; Ret [7]: 8%; WBC [7]: 88.7 x10_2/uL; KIDNEY_L [7]: 0.9 g; KIDNEY_R [7]: 0.9 g; KIDNEY_TOTAL [7]: 1.8 g; LIVER [7]: 7.9 g; ALP [7]: 712.8 IU/L; ALT [7]: 34.4 IU/L; AST [7]: 77.2 IU/L; BUN [7]: 15 mg/dL; CRE [7]: 0.4 mg/dL; Ca [7]: 8 mg/dL; Cl [7]: 105.2 meq/L; DBIL [7]: 0.048 mg/dL; GLC [7]: 211.4 mg/dL; IP [7]: 7.6 mg/dL; K [7]: 3.3 meq/L; LDH [7]: 212.4 IU/L; Na [7]: 139.4 meq/L; PL [7]: 97.2 mg/dL; RALB [7]: 3.4 g/dL; TBIL [7]: 0.092 mg/dL; TC [7]: 59.4 mg/dL; TG [7]: 11 mg/dL; TP [7]: 5.6 g/dL; gamma-GTP [7]: 0.8 IU/L; TERMINAL_BW [8]: 210.7 g; APTT [8]: 32.6 s; Bas [8]: 0%; Eos [8]: 0.8%; Fbg [8]: 223 mg/dL; Hb [8]: 14.7 g/dL; Ht [8]: 39.8%; Lym [8]: 69.2%; MCH [8]: 22 pg; MCHC [8]: 37%; MCV [8]: 59.4 fL; Mono [8]: 2.6%; Neu [8]: 26.4%; Plat [8]: 125.8 x10_4/uL; RBC [8]: 669.4 x10_4/ul; Ret [8]: 7.5%; WBC [8]: 56.2 x10_2/uL; KIDNEY_L [8]: 0.9 g; KIDNEY_R [8]: 0.9 g; KIDNEY_TOTAL [8]: 1.9 g; LIVER [8]: 7 g; ALP [8]: 912.4 IU/L; ALT [8]: 30 IU/L; AST [8]: 138.6 IU/L; BUN [8]: 14.6 mg/dL; CRE [8]: 0.4 mg/dL; Ca [8]: 7 mg/dL; Cl [8]: 104 meq/L; DBIL [8]: 0.048 mg/dL; GLC [8]: 230.6 mg/dL; IP [8]: 6.3 mg/dL; K [8]: 3.1 meq/L; LDH [8]: 232.4 IU/L; Na [8]: 138.4 meq/L; PL [8]: 81.6 mg/dL; RALB [8]: 3.5 g/dL; TBIL [8]: 0.092 mg/dL; TC [8]: 44.4 mg/dL; TG [8]: 24.8 mg/dL; TP [8]: 5.7 g/dL; gamma-GTP [8]: 1.4 IU/L
